Values after ≈ are worked out from the molar mass of the structure shown.
How the values were obtained:
[1] = Octanol/water partition coefficient, logP of the compound; assay type: physicochemical
[2] = Kinetic solubility of compound in 1-Octanol/PBS at pH 7.4 at 200 uM incubated for 2 hrs by shake flask method; assay type: physicochemical; details: read-out: Kinetic_solubility
[3] = test system: Plasmodium falciparum; test: Antimalarial activity against Plasmodium falciparum 3D7 assessed as reduction in parasite growth; assay type: functional, organism-based
[4] = test system: Plasmodium falciparum; test: Antimalarial activity against Plasmodium falciparum NF54 assessed as parasite growth inhibition at 2 uM relative to control; assay type: functional; details: read-out: GI

With c1ccc(-c2ccnc(C3CCN(CC45CNCC4C5)CC3)n2)cc1 (stereo unspecified) the logP ([1]; read-out: logP) was 3.2 and the solubility kinetic at 2 h, 200 µM [2] was 200 µM (≈ 66.9 µg/mL).

Work on CC1CCN(Cc2cccc(C(=O)NCc3ccc(F)c(-c4ccc(CN5CCN[C@H](C)C5)cc4)c3)c2)CC1 yielded an XC50 [3] of 1460 nM.

CN1CCN(CCCCNC2CC3CCC(C2)N3Cc2ccccc2)CC1 (stereo unspecified) gave a logP ([1]; read-out: logP) of 3.1 and a solubility kinetic at 2 h, 200 µM [2] of 200 µM (≈ 74.1 µg/mL).

Work on COc1ccc(CN2CCN(c3ccncc3C)CC2)cc1Cn1cccn1 yielded an inhibition of growth at 2 µM [4] of -15%.

Cc1c(CN2CCC(O)(Cn3ccnc3)CC2)[nH]c2c(Cl)cccc12 gave a logP ([1]; read-out: logP) of 3.6.

With OC1(CCCNC2CCN(C3CC3)C(c3ccccc3)C2)CCC1 (stereo unspecified) the inhibition of growth at 2 µM [4] was -8%.

COc1ccc(-c2cncc(C(=O)NCC3CCN(CCN(C)C)CC3)c2)cc1 gave a logP ([1]; read-out: logP) of 2.8.

Work on CC1(N2CCC2)CCC(NCC2CCN(Cc3ccccc3)C2)CC1 (stereo unspecified) yielded a logP ([1]; read-out: logP) of 3.4.

In the case of Cc1cnccc1N1CCCN(Cc2ccccc2OCCN2CCN(C)CC2)CC1, the logP ([1]; read-out: logP) is reported as 3.

Oc1cc(CN2CCC(O)(Cn3ccnc3)CC2)nc2c(Cl)cccc12 showed an XC50 [3] of 882 nM.

CN1CCC(Oc2ccc(NC(=O)c3cn4ccnc4s3)cn2)CC1 showed a logP ([1]; read-out: logP) of 2 and a solubility kinetic at 2 h, 200 µM [2] of 200 µM (≈ 71.5 µg/mL).

Work on O=C(NC1CCN(CCOc2ccc(Cl)cc2)CC1)c1c[nH]c2ccncc2c1=O yielded a logP [1] of 2.5.

With COc1c(C2CCN(CCN3CCC(CNC(=O)c4ccc(-c5ccc(C#N)cc5)cc4)CC3)CC2)ccc2c1CCCC2 the XC50 [3] was 445 nM.

Source: ChEMBL document CHEMBL5390311, “MAIP: An Open-Source Tool to Enrich High-Throughput Screening Output and Identify Novel, Druglike Molecules with Antimalarial Activity” (ACS Med Chem Lett, 2023)
